Reference: patent US20230286970A1, “NOVEL OXADIAZOLE-BASED SELECTIVE HDAC6 INHIBITORS” (ITALFARMACO S.P.A., priority 2020, published 2023)

Key:
recombinant human HDAC6 = recombinant human HDAC6 (Homo sapiens (Human), UniProt Q9UBN7); assay: Enzymatic screening, HDAC6 inhibition (fluorogenic FdL_G substrate); format: biochemical
Procedure: (§1) For each test compound, 100× concentrated DMSO solutions at 8 doses were prepared and then diluted in assay buffer (25 mM Tris-HCl, pH 8, 130 mM NaCl, 0.05% Tween-20, 10% Glycerol) to obtain 5× concentrated solutions in relation to the final concentrations (typical final concentration range—6.4-200000 nM or 0.18-50000 nM, final DMSO content—1%). Then 10 μL solution of each test compound concentration were placed on a 96-well plate in triplicate and 15 μL of 3.33× concentrated enzyme solution in the assay buffer containing 3.33× concentrated BSA (final BSA concentration—2 mg/mL for HDAC4, HDAC5 and HDAC9 or 1 mg/mL for other isoforms) and in the case of HDAC6-3.33× concentrated TCEP (final TCEP concentration—200 μM) were added to each well. After a period of preincubation (incubation times and temperatures vary for different isoforms and are shown in table 1) 25 μL of solution containing the substrate were added. As substrate, FLUOR DE LYS® deacetylase substrate (Enzo Life Sciences, cat: BML-KI104, FdL), FLUOR DE LYS®-Green substrate (Enzo Life Sciences, cat: BML-KI572, FdL_G) or Boc-Lys(Tfa)-AMC (Bachem, cat: 4060676.005, Tfal)—2× concentrated solution in assay buffer were used. Following a reaction period (reaction times and temperatures vary for different isoforms and are reported in Table 1), 50 μL of the development solution consisting of concentrate FLUOR DE LYS® developer I (Enzo Life Sciences, ca: BML-KI105), diluted 200 times in buffer (50 mM Tris-HCl, pH 8, 137 mM NaCl, 2.7 mM KCl, 1 mM MgCl2) plus 2 μM TSA was added and, after 25 minutes at room temperature in the dark, using the Victor 1420 Multilabel Counter Perkin Elmer Wallac instrument, the fluorescence reading was carried out.

recombinant human HDAC1 = recombinant human HDAC1 (Homo sapiens (Human), UniProt Q13547); assay: Enzymatic screening, HDAC1 inhibition (fluorogenic FdL_G substrate); format: biochemical
Sequence of recombinant human HDAC1 (Q13547 whole entry): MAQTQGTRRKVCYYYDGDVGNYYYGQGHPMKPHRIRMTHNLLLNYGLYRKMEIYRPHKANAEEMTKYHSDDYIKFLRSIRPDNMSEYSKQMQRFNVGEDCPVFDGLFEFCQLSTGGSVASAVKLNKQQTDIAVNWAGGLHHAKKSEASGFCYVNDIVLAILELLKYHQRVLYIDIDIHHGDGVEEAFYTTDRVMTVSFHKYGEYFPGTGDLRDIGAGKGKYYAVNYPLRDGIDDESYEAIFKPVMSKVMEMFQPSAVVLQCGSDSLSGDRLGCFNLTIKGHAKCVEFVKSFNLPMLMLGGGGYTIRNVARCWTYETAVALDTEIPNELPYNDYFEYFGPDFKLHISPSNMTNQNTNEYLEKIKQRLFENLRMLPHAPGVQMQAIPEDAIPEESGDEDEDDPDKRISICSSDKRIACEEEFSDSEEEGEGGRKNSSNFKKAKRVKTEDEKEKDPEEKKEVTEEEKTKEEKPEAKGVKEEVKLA
Procedure: as §1

Sequence of recombinant human HDAC6 (Q9UBN7 whole entry, canonical isoform): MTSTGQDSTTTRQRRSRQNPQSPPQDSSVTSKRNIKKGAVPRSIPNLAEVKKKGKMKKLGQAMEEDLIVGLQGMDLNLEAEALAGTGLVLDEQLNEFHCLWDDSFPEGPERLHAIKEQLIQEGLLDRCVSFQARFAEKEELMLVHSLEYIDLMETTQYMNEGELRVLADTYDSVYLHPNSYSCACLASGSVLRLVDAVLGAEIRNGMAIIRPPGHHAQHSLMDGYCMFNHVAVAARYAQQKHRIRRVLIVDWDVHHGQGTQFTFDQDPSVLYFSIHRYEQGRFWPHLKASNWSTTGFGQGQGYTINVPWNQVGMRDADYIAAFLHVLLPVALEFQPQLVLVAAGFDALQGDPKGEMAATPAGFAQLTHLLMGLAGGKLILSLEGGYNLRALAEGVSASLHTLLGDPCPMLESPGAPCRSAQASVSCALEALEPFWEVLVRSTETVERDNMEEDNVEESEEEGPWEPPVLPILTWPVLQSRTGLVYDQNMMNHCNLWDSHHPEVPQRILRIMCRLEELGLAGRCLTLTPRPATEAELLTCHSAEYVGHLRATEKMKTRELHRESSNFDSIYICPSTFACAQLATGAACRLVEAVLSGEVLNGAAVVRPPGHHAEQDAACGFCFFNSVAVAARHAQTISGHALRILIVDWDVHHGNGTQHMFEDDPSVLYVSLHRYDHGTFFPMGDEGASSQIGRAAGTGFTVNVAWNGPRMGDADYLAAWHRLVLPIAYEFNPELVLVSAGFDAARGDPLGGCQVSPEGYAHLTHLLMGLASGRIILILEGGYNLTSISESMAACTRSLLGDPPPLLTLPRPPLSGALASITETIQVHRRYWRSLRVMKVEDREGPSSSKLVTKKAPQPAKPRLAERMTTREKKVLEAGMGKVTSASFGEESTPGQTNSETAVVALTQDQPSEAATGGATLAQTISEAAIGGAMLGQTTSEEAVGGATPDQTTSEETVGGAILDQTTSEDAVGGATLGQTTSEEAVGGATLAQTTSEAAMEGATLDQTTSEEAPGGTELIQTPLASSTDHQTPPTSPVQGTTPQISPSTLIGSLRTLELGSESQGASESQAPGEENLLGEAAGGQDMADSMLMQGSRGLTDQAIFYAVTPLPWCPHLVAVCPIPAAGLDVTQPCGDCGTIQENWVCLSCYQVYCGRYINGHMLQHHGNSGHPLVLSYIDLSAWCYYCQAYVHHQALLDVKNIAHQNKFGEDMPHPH

| IC50 (recombinant human HDAC6) [nM] | IC50 (recombinant human HDAC1) [nM] | Structure (SMILES) |
| --- | --- | --- |
| 9 | 165000 | FC(F)c1nnc(-c2ccc(Cn3nnc(-c4cccc(-c5nc6c([nH]5)CCNC6)c4)n3)nc2)o1 [compound 276, 2-(difluoromethyl)-5-(6-((5-(3-(4,5,6,7-tetrahydro-1H-imidazo[4,5-c]pyridin-2-yl)phenyl)-2H-tetrazol-2-yl)methyl)pyridin-3-yl)-1,3,4-oxadiazole] |
| 17 | > 1e+06 | [2H]C([2H])(c1ccc(-c2nnc(C(F)F)o2)cc1)n1cnc(-c2ccc(NC3=NCCN3)cc2)c1 [compound 368, N-[4-[1-[dideuterio-[4-[5-(difluoromethyl)-1,3,4-oxadiazol-2-yl]phenyl]methyl]imidazol-4-yl]phenyl]-4,5-dihydro-1H-imidazol-2-amine] |
| 410 | > 200000 | O=C(Nc1cc(-c2nnn(Cc3ccc(-c4nnc(C(F)F)o4)cc3)n2)ccc1Sc1ccccc1)N1CCOCC1 [compound 258, N-(5-(2-(4-(5-(difluoromethyl)-1,3,4-oxadiazol-2-yl)benzyl)-2H-tetrazol-5-yl)-2-(phenylthio)phenyl)morpholine-4-carboxamide] |
| 31 | > 1e+06 | Nc1nc2ccc(-c3cn(Cc4cc(F)c(-c5nnc(C(F)F)o5)cc4F)nn3)cc2s1 [compound 343, 6-[1-[[4-[5-(difluoromethyl)-1,3,4-oxadiazol-2-yl]-2,5-difluorophenyl]methyl]triazol-4-yl]-1,3-benzothiazol-2-amine] |
| 55 | > 200000 | CC(=O)Nc1cccc(-c2cn(Cc3ccc(-c4nnc(C(F)F)o4)cc3)nn2)c1 [compound 139, N-(3-(1-(4-(5-(difluoromethyl)-1,3,4-oxadiazol-2-yl)benzyl)-1H-1,2,3-triazol-4-yl)phenyl)acetamide] |
| 30 | > 200000 | O=C1NCc2ccc(-c3cn(Cc4ccc(-c5nnc(C(F)F)o5)cn4)cn3)cc21 [Compd. 292, 6-(1-((5-(5-(difluoromethyl)-1,3,4-oxadiazol-2-yl)pyridin-2-yl)methyl)-1H-imidazol-4-yl)isoindolin-1-one] |
| 169 | > 200000 | O=c1[nH]c2cc(-c3nnn(Cc4ccc(-c5nnc(C(F)F)o5)cc4)n3)ccc2o1 [compound 225, 5-(2-(4-(5-(difluoromethyl)-1,3,4-oxadiazol-2-yl)benzyl)-2H-tetrazol-5-yl)benzo[d]oxazol-2 (3H)-one] |
| 211 | > 200000 | FC(F)c1nnc(-c2ccc(Cc3nnc(-c4ccccc4)s3)cc2)o1 [Compd. 238, 2-(difluoromethyl)-5-(4-((5-phenyl-1,3,4-thiadiazol-2-yl)methyl)phenyl)-1,3,4-oxadiazole] |
| 30 | > 200000 | O=C(Nc1cccc(-c2nnn(Cc3ccc(-c4nnc(C(F)F)o4)cc3)n2)c1)N1CCOCC1 [compound 71, N-(3-(2-(4-(5-(difluoromethyl)-1,3,4-oxadiazol-2-yl)benzyl)-2H-tetrazol-5-yl)phenyl)morpholine-4-carboxamide] |
| 69 | > 1e+06 | Nc1nc2cc(-c3cn(Cc4ccc(-c5nnc(C(F)F)o5)cc4)cn3)ccc2o1 [compd. 309, 5-[1-[[4-[5-(difluoromethyl)-1,3,4-oxadiazol-2-yl]phenyl]methyl]imidazol-4-yl]-1,3-benzoxazol-2-amine] |
| 88 | > 200000 | NC(=S)Nc1cccc(-c2cn(Cc3c(F)cc(-c4nnc(C(F)F)o4)cc3F)nn2)c1 [compound 175, 1-(3-(1-(4-(5-(difluoromethyl)-1,3,4-oxadiazol-2-yl)-2,6-difluorobenzyl)-1H-1,2,3-triazol-4-yl)phenyl)thiourea] |
| 72 |  | CC(c1ccc(-c2nnc(C(F)F)o2)cc1)n1cc(-c2ccc(N)nc2)nn1 (stereo not shown) [Compd. 158, 5-(1-(1-(4-(5-(difluoromethyl)-1,3,4-oxadiazol-2-yl)phenyl)ethyl)-1H-1,2,3-triazol-4-yl)pyridin-2-amine] |
| 76 |  | Nc1ncc2cc(-c3nnn(Cc4ccc(-c5nnc(C(F)F)o5)cc4F)n3)ccc2n1 [compound 424, 6-(2-(4-(5-(difluoromethyl)-1,3,4-oxadiazol-2-yl)-2-fluorobenzyl)-2H-tetrazol-5-yl)quinazolin-2-amine] |
| 545 |  | Nc1ncc2cc(-c3nnn(Cc4ccc(-c5nnc(C(F)F)o5)cc4Cl)n3)ccc2n1 [compound 425, 6-(2-(2-chloro-4-(5-(difluoromethyl)-1,3,4-oxadiazol-2-yl)benzyl)-2H-tetrazol-5-yl)quinazolin-2-amine] |
| 72 |  | Fc1cc(-c2nnc(C(F)F)o2)ccc1Cn1nnc(-c2ccc3cnccc3c2)n1 [compound 427, 2-(difluoromethyl)-5-(3-fluoro-4-((5-(isoquinolin-6-yl)-2H-tetrazol-2-yl)methyl)phenyl)-1,3,4-oxadiazole] |
|  | > 200000 | C[C@@H]1CN(c2ccc(-c3nnn(Cc4ccc(-c5nnc(C(F)F)o5)cc4)n3)cn2)CCN1 [compound 159, (R)-2-(difluoromethyl)-5-(4-((5-(6-(3-methylpiperazin-1-yl)pyridin-3-yl)-2H-tetrazol-2-yl)methyl)phenyl)-1,3,4-oxadiazole] |
| 27 |  | Nc1ncnc2cc(-c3cn(Cc4ccc(-c5nnc(C(F)F)o5)c(F)c4)nn3)ccc12 [compound 418, 7-(1-(4-(5-(difluoromethyl)-1,3,4-oxadiazol-2-yl)-3-fluorobenzyl)-1H-1,2,3-triazol-4-yl)quinazolin-4-amine] |
| 44 |  | Nc1ncnc2sc(-c3cn(Cc4ccc(-c5nnc(C(F)F)o5)c(F)c4)nn3)cc12 [compound 417, 6-[1-({4-[5-(difluoromethyl)-1,3,4-oxadiazol-2-yl]-3-fluorophenyl}methyl)-1H-1,2,3-triazol-4-yl]thieno[2,3-d]pyrimidin-4-amine] |
| 122 |  | COc1ccc(-c2nnn(Cc3ccc(-c4nnc(C(F)F)o4)cc3)n2)cc1 [compound 204, 2-(difluoromethyl)-5-(4-((5-(4-methoxyphenyl)-2H-tetrazol-2-yl)methyl)phenyl)-1,3,4-oxadiazole] |
| 489 |  | FC(F)c1nnc(-c2ccc(Cn3nnc(-c4ccc(Cl)cc4Cl)n3)cc2)o1 [compound 263, 2-(4-((5-(2,4-dichlorophenyl)-2H-tetrazol-2-yl)methyl)phenyl)-5-(difluoromethyl)-1,3,4-oxadiazole] |
| 59 |  | Nc1ncnc2cc(-c3cn(Cc4ccc(-c5nnc(C(F)F)o5)cc4Cl)nn3)ccc12 [compound 434, 7-(1-(2-chloro-4-(5-(difluoromethyl)-1,3,4-oxadiazol-2-yl)benzyl)-1H-1,2,3-triazol-4-yl)quinazolin-4-amine] |
| 186 |  | Nc1ncc2cc(-c3nnn(Cc4ccc(-c5nnc(C(F)F)o5)cc4)n3)ccc2n1 [compound 278, 6-(2-(4-(5-(difluoromethyl)-1,3,4-oxadiazol-2-yl)benzyl)-2H-tetrazol-5-yl)quinazolin-2-amine] |
| 49 |  | Nc1cnc2ccc(-c3nnn(Cc4cc(F)c(-c5nnc(C(F)F)o5)cc4F)n3)cc2c1 [compound 398, 6-[2-[[4-[5-(difluoromethyl)-1,3,4-oxadiazol-2-yl]-2,5-difluorophenyl]methyl]tetrazol-5-yl]quinolin-3-amine] |
| 99 |  | Fc1cc(-c2nnc(C(F)F)o2)c(F)cc1Cn1nnc(-c2ccc3cnccc3c2)n1 [compound 428, 2-(2,5-difluoro-4-((5-(isoquinolin-6-yl)-2H-tetrazol-2-yl)methyl)phenyl)-5-(difluoromethyl)-1,3,4-oxadiazole] |
| 352 |  | Fc1cc(-c2nnc(C(F)F)o2)ccc1Cn1nnc(-c2nccc3ccccc23)n1 [compound 431, 2-(difluoromethyl)-5-(3-fluoro-4-((5-(isoquinolin-1-yl)-2H-tetrazol-2-yl)methyl)phenyl)-1,3,4-oxadiazole] |
| 32 |  | Nc1cnc2ccc(-c3nnn(Cc4ccc(-c5nnc(C(F)F)o5)c(F)c4)n3)cc2c1 [compound 400, 6-[2-[[4-[5-(difluoromethyl)-1,3,4-oxadiazol-2-yl]-3-fluorophenyl]methyl]tetrazol-5-yl]quinolin-3-amine] |
|  | > 200000 | C[C@H]1CN(c2ccc(-c3nnn(Cc4ccc(-c5nnc(C(F)F)o5)cc4)n3)cn2)CCN1 [compound 182, (S)-2-(difluoromethyl)-5-(4-((5-(6-(3-methylpiperazin-1-yl)pyridin-3-yl)-2H-tetrazol-2-yl)methyl)phenyl)-1,3,4-oxadiazole] |
| 100 |  | CNc1ccc2cc(-c3nnn(Cc4cc(F)c(-c5nnc(C(F)F)o5)cc4F)n3)ccc2n1 [compound 504, 6-(2-(4-(5-(difluoromethyl)-1,3,4-oxadiazol-2-yl)-2,5-difluorobenzyl)-2H-tetrazol-5-yl)-N-methylquinolin-2-amine] |
| 23 |  | Nc1ncnc2cc(-c3cn(Cc4cc(F)c(-c5nnc(C(F)F)o5)cc4F)nn3)ccc12 [compound 433, 7-(1-(4-(5-(difluoromethyl)-1,3,4-oxadiazol-2-yl)-2,5-difluorobenzyl)-1H-1,2,3-triazol-4-yl)quinazolin-4-amine] |
